Test results taken from patent US6933288B2, “Pyranosyl cytosines: pharmaceutical formulations and methods” (ISIS Pharmaceuticals, Inc., priority 2002, dated 2005).

Tested on: C. Albicans
Assay: Activity against fungi (C. albicans)
Format: cell-based
Details: Table 10
From the text: Table 10 presents results of activity assays for selected compounds against fungi, as exemplified by activity against c. albicans according to assays known in the art.

Structure (SMILES)	Activity against C. Albicans [µM]
CNCCNC(CCN)C(=O)CC1C(C(=O)N2CCNCC2)OC(n2ccc(N)nc2=O)C(O)C1O (stereo not drawn) [compound 1]	1 to 3
CNCC(=O)NC(CCN)C(=O)CC1C(C(=O)N2CCNCC2)OC(n2ccc(NCCCN3CCN(C)CC3)nc2=O)C(O)C1O (stereo not drawn) [compound 2]	3 to 6
CNCC(=O)NC(CCN)C(=O)NC1C(C(=O)N2CCNCC2)OC(n2ccc(N)nc2=O)C(O)C1O (stereo not drawn) [compound 5]	1 to 3
